# “And” between values parts separate entries of the source, which are not always exact repeats. Equal values may be shown once. Inconclusive results are not listed. *1 amine or outer side, *2 acyl side, *3 side chain or, on linkers, in order; H or OH if unused. Where a SMILES comes first, the peptide text is derived from it. Bridges are numbered along the chain shown (N, C = ends). Roman numbers before positions name the chains, in order. [ ]: non-standard residue; d: D form. Actinocin(9to1) = Cc1c2oc3c(C)ccc(C(=O)[*:1])c3nc-2c(C(=O)[*:2])c(N)c1=O; aThr = C[C@H](O)[C@H](N)C(=O)O; NMeV = CN[C@H](C(=O)O)C(C)C; Sar = CNCC(=O)O
# Tested on: HT29 intrarenal xenograft, nude mice, tumor weight change
# Test: NCI In Vivo Anticancer Drug Screen. Data for tumor model HT29;CX-1 Human Adenocarcinoma (MER+) (intrarenal inoculation) in NU/NU BALB/C (nude) mice
# Conditions: endpoint: mean tumor weight change, higher = larger tumour
# Protocol: The antitumor activity of compounds was measured in mice bearing transplantable tumors. Survival or tumor size were measured and the results are expressed as the measurement made in the treated group (T) divided by the measurement made in the vehicle treated control group (C). The tumor model used in this assay is HT29;CX-1 Human Adenocarcinoma (MER+) (intrarenal inoculation) in NU/NU BALB/C (nude) mice
# [1] = dose: 25.0 mg/kg/injection, schedule: Q04DX004 (sc), vehicle: saline
# [2] = dose: 50.0 mg/kg/injection, schedule: Q04DX004 (sc), vehicle: saline
# [3] = dose: 300.0 mg/kg/injection, schedule: Q04DX004 (sc), vehicle: saline
# [4] = dose: 600.0 mg/kg/injection, schedule: Q04DX004 (sc), vehicle: saline
smiles,measurement,setting,value
CCCCc1ccc2nc(NC(=O)OC)[nH]c2c1,T/C,"dose: 25.0 mg/kg/injection, schedule: Q01DX010 (sc), vehicle: saline with Tween-80",108 % of control
same,T/C,"dose: 100.0 mg/kg/injection, schedule: Q01DX010 (sc), vehicle: saline with Tween-80",90 % of control
same,T/C,"dose: 200.0 mg/kg/injection, schedule: Q01DX010 (sc), vehicle: saline with Tween-80",94 % of control
"Cc1c2oc3c(C)ccc(C(=O)N[C@@H]4C(=O)N[C@H](C(C)C)C(=O)N5CCC[C@H]5C(=O)N(C)CC(=O)N(C)[C@@H](C(C)C)C(=O)O[C@H]4C)c3nc-2c(C(=O)N[C@@H]2C(=O)N[C@H](C(C)C)C(=O)N3CCC[C@H]3C(=O)N(C)CC(=O)N(C)[C@@H](C(C)C)C(=O)O[C@H]2C)c(N)c1=O (I: [aThr][dV]P[Sar][NMeV] / II: [aThr][dV]P[Sar][NMeV]; ester I:1-I:C, II:1-II:C; linker I:N-II:N via Actinocin(9to1))",T/C,"dose: 0.03 mg/kg/injection, schedule: Q04DX004 (ip), vehicle: saline",77 % of control
same,T/C,"dose: 0.05 mg/kg/injection, schedule: Q04DX004 (ip), vehicle: saline",77 % of control
same,T/C,"dose: 0.08 mg/kg/injection, schedule: Q04DX004 (ip), vehicle: saline",97 % of control
BrCCC1(CCBr)CCCCC1,T/C,"dose: 300.0 mg/kg/injection, schedule: Q04DX004 (sc), vehicle: water",97 % of control
same,T/C,"dose: 600.0 mg/kg/injection, schedule: Q04DX004 (sc), vehicle: water",77 % of control
same,T/C,"dose: 1200.0 mg/kg/injection, schedule: Q04DX004 (sc), vehicle: water",58 % of control
same,T/C,"dose: 2400.0 mg/kg/injection, schedule: Q04DX004 (sc), vehicle: water",76 % of control
NC(Cc1ccc(N(CCCl)CCCl)cc1)C(=O)O (configuration not stated),T/C,"dose: 5.0 mg/kg/injection, schedule: Q04DX004 (sc), vehicle: saline",46 % of control
same,T/C,"dose: 10.0 mg/kg/injection, schedule: Q04DX004 (sc), vehicle: saline",106 % of control
same,T/C,"dose: 20.0 mg/kg/injection, schedule: Q04DX004 (sc), vehicle: saline",47 % of control
CCCCC1CCCCCCc2[nH]c(/C=C3\N=C(c4ccc[nH]4)C=C3OC)cc21 (configuration not stated),T/C,"dose: 2.0 mg/kg/injection, schedule: Q04DX004 (sc), vehicle: saline with Tween-80",100 % of control
same,T/C,"dose: 4.0 mg/kg/injection, schedule: Q04DX004 (sc), vehicle: saline with Tween-80",192 % of control
same,T/C,"dose: 8.0 mg/kg/injection, schedule: Q04DX004 (sc), vehicle: saline with Tween-80",92 % of control
N=C1CCCS1,T/C,"dose: 12.5 mg/kg/injection, schedule: Q04DX004 (sc), vehicle: saline",117 % of control
same,T/C,[1],151 % of control
same,T/C,[2],96 % of control
same,T/C,"dose: 100.0 mg/kg/injection, schedule: Q04DX004 (sc), vehicle: saline",62 % of control
O=c1c(O)c(-c2cc(O)c(O)c(O)c2)oc2cc(O)cc(O)c12,T/C,"dose: 1.5 mg/kg/injection, schedule: Q04DX004 (sc), vehicle: saline with Tween-80",105 % of control
same,T/C,"dose: 3.0 mg/kg/injection, schedule: Q04DX004 (sc), vehicle: saline with Tween-80",114 % of control
same,T/C,"dose: 6.0 mg/kg/injection, schedule: Q04DX004 (sc), vehicle: saline with Tween-80",107 % of control
same,T/C,"dose: 12.0 mg/kg/injection, schedule: Q04DX004 (sc), vehicle: saline with Tween-80",106 % of control
same,T/C,"dose: 50.0 mg/kg/injection, schedule: Q04DX004 (sc), vehicle: saline with Tween-80",63 % of control
same,T/C,"dose: 100.0 mg/kg/injection, schedule: Q04DX004 (sc), vehicle: saline with Tween-80",73 % of control
same,T/C,"dose: 200.0 mg/kg/injection, schedule: Q04DX004 (sc), vehicle: saline with Tween-80",77 % of control
same,T/C,"dose: 400.0 mg/kg/injection, schedule: Q04DX004 (sc), vehicle: saline with Tween-80",103 % of control
Nc1nc(-c2ccccc2)c(Br)c(=O)[nH]1,T/C,"dose: 300.0 mg/kg/injection, schedule: Q04DX004 (sc), vehicle: saline with Tween-80",124 % of control
same,T/C,"dose: 600.0 mg/kg/injection, schedule: Q04DX004 (sc), vehicle: saline with Tween-80",117 % of control
same,T/C,"dose: 2400.0 mg/kg/injection, schedule: Q04DX004 (sc), vehicle: saline with Tween-80",102 % of control
O=C1C2CC(Cl)C(SSC3CC4C(=O)N(SC(Cl)(Cl)C(Cl)Cl)C(=O)C4CC3Cl)CC2C(=O)N1SC(Cl)(Cl)C(Cl)Cl (configuration not stated),T/C,"dose: 75.0 mg/kg/injection, schedule: Q04DX004 (ip), vehicle: Klucel (hydroxypropylcellulose) (HPC)",56 % of control
same,T/C,"dose: 150.0 mg/kg/injection, schedule: Q04DX004 (ip), vehicle: Klucel (hydroxypropylcellulose) (HPC)",58 % of control
same,T/C,"dose: 300.0 mg/kg/injection, schedule: Q04DX004 (ip), vehicle: Klucel (hydroxypropylcellulose) (HPC)",39 % of control
same,T/C,"dose: 600.0 mg/kg/injection, schedule: Q04DX004 (ip), vehicle: Klucel (hydroxypropylcellulose) (HPC)",35 % of control
CC1=C/C(O)CC(=O)Cc2nc(co2)C(=O)N2CCC=C2C(=O)OC(C(C)C)C(C)/C=C\C(=O)NC/C=C\1 (configuration not stated),T/C,"dose: 150.0 mg/kg/injection, schedule: Q04DX004 (sc), vehicle: Klucel (hydroxypropylcellulose) (HPC)",66 % of control
same,T/C,"dose: 300.0 mg/kg/injection, schedule: Q04DX004 (sc), vehicle: Klucel (hydroxypropylcellulose) (HPC)",92 % of control
same,T/C,"dose: 600.0 mg/kg/injection, schedule: Q04DX004 (sc), vehicle: Klucel (hydroxypropylcellulose) (HPC)",54 % of control
same,T/C,"dose: 1200.0 mg/kg/injection, schedule: Q04DX004 (sc), vehicle: Klucel (hydroxypropylcellulose) (HPC)",85 % of control
CSc1ncnc2c1ncn2C1OC(CO)C(O)C1O (configuration not stated),T/C,"dose: 37.5 mg/kg/injection, schedule: Q04DX004 (sc), vehicle: saline + alcohol",101 % of control
same,T/C,"dose: 75.0 mg/kg/injection, schedule: Q04DX004 (sc), vehicle: saline + alcohol",30 % of control
same,T/C,"dose: 150.0 mg/kg/injection, schedule: Q04DX004 (sc), vehicle: saline + alcohol",12 % of control
CS(=O)(=O)OCCCNCCCOS(C)(=O)=O,T/C,"dose: 75.0 mg/kg/injection, schedule: Q04DX004 (sc), vehicle: saline",71 % of control
CCOC(=O)c1ccc(NC(=O)Nc2nncs2)cc1,T/C,"dose: 100.0 mg/kg/injection, schedule: Q01DX010 (sc), vehicle: distilled water + Tween-80",52 % of control
same,T/C,"dose: 200.0 mg/kg/injection, schedule: Q01DX010 (sc), vehicle: distilled water + Tween-80",69 % of control
same,T/C,"dose: 800.0 mg/kg/injection, schedule: Q01DX010 (sc), vehicle: distilled water + Tween-80",84 % of control
N#CC(OC1OC(COC2OC(CO)C(O)C(O)C2O)C(O)C(O)C1O)c1ccccc1 (configuration not stated),T/C,[3],95 % of control
same,T/C,[4],96 % of control
same,T/C,"dose: 1200.0 mg/kg/injection, schedule: Q04DX004 (sc), vehicle: saline",88 % of control
same,T/C,"dose: 2400.0 mg/kg/injection, schedule: Q04DX004 (sc), vehicle: saline",94 % of control
CN(C)P(=O)(Oc1ccccc1)N(C)C,T/C,"dose: 1200.0 mg/kg/injection, schedule: Q04DX004 (sc), vehicle: saline with Tween-80",78 % of control
O=C1CCC(=O)N1CO,T/C,"dose: 150.0 mg/kg/injection, schedule: Q04DX004 (sc), vehicle: saline",66 % of control
same,T/C,[3],80 % of control
same,T/C,[4],74 % of control
C=CC(C)(C)n1cc(C2=C(O)C(=O)C(c3cn(C(C)(C)C=C)c4ccccc34)=C(O)C2=O)c2ccccc21,T/C,"dose: 25.0 mg/kg/injection, schedule: Q04DX004 (sc), vehicle: Klucel (hydroxypropylcellulose) (HPC)",113 % of control
same,T/C,"dose: 100.0 mg/kg/injection, schedule: Q04DX004 (sc), vehicle: Klucel (hydroxypropylcellulose) (HPC)",118 % of control
same,T/C,"dose: 200.0 mg/kg/injection, schedule: Q04DX004 (sc), vehicle: Klucel (hydroxypropylcellulose) (HPC)",121 % of control
CCC1OCC(C(Cl)CCl)O1 (configuration not stated),T/C,"dose: 177.0 mg/kg/injection, schedule: Q01DX014 (sc), vehicle: other",57 % of control and 75 % of control
same,T/C,"dose: 267.0 mg/kg/injection, schedule: Q01DX014 (sc), vehicle: other",85 % of control
same,T/C,"dose: 600.0 mg/kg/injection, schedule: Q01DX014 (sc), vehicle: other",61 % of control
same,T/C,"dose: 900.0 mg/kg/injection, schedule: Q01DX014 (sc), vehicle: Klucel (hydroxypropylcellulose) (HPC)",10 % of control
NC(=O)c1ccc[n+](Cc2c(Cl)cccc2Cl)c1,T/C,[1],93 % of control
same,T/C,[2],91 % of control
same,T/C,"dose: 200.0 mg/kg/injection, schedule: Q04DX004 (sc), vehicle: saline",205 % of control
C[C@@H]1CC[C@]2(C)CC[C@]3(C)C(=CC[C@@H]4[C@@]5(C)CC[C@@H](OC(=O)c6ccc(O)cc6)C(C)(C)[C@@H]5C[C@H](O)[C@]43C)[C@@H]2[C@H]1C(=O)O,T/C,"dose: 0.62 mg/kg/injection, schedule: Q04DX004 (sc), vehicle: saline with Tween-80",79 % of control
same,T/C,"dose: 1.25 mg/kg/injection, schedule: Q04DX004 (sc), vehicle: saline with Tween-80",109 % of control
same,T/C,"dose: 2.5 mg/kg/injection, schedule: Q04DX004 (sc), vehicle: saline with Tween-80",59 % of control

# Reference: PubChem BioAssay AID208 (DTP/NCI, 2004)
